Source: ChEMBL document CHEMBL2074347, “Circumvention of tumor multidrug resistance by a new annonaceous acetogenin: atemoyacin-B” (Acta Pharmacol Sin, 1999)

Experiments:
[1] = target: T1, ATP-dependent translocase ABCB1 (Homo sapiens, UniProt P08183); experiment: TP_TRANSPORTER: increase in Fura-2 intracellular accumulation (Fura-2: ? uM, Ateomyacin-B: 168 uM) in MCF-7/Dox cells; format: functional, cell-based
[2] = target: T1, ATP-dependent translocase ABCB1; experiment: TP_TRANSPORTER: increase in Doxorubicin intracellular accumulation (Doxorubicin: ? uM, Ateomyacin-B: 168 uM) in MCF-7/Dox cells; format: functional, cell-based

T1 sequence (P08183 whole entry): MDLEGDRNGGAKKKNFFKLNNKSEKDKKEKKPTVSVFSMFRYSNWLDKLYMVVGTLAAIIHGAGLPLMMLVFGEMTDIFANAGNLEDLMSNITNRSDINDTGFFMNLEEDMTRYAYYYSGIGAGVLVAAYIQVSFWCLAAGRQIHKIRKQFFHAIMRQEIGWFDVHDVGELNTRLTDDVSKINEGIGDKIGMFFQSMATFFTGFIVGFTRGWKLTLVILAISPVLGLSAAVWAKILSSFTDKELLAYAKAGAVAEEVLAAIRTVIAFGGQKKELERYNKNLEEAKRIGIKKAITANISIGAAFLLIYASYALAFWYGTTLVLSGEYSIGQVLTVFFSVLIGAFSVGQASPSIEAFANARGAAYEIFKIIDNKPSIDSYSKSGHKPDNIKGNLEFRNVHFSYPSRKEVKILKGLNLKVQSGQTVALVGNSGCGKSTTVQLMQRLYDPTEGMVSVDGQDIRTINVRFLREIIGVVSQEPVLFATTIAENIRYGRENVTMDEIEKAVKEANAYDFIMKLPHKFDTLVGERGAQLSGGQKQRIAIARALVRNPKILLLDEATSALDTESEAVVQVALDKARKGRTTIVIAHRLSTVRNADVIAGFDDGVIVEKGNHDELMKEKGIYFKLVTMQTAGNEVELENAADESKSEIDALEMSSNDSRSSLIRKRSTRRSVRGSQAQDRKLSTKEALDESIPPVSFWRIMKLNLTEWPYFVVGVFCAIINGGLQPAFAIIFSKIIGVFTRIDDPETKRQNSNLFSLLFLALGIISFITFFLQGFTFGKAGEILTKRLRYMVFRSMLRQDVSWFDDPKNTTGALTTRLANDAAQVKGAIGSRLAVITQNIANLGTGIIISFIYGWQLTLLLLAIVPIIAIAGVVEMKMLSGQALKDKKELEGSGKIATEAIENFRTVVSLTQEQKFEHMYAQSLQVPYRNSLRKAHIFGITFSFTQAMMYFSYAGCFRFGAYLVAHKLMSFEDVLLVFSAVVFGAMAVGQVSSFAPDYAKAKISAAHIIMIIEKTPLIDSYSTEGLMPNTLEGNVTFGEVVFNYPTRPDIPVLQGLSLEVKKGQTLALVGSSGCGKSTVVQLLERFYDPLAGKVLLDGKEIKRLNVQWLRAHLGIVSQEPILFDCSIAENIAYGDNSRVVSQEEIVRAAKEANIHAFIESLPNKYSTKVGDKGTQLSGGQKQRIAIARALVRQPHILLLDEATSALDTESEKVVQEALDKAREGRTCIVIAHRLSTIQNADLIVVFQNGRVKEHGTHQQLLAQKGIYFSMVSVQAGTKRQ

Activity [1]: 2.61 fold
Activity [2]: 3.28 fold
SMILES: CCCCCC(O)CCCCC(O)C1CCC(C2CCC(C(O)CCCCCCCCCCC3=CC(C)OC3=O)O2)O1 (configuration not stated) [Atemoyacin-B]
